For data set [1], the system named is canine heart, regional warm ischemia (LAD). As to the kind of experiment: Regional warm ischemia (LAD), intact AMI model: coronary artery occlusion followed by reperfusion. Format: in vivo. The conditions noted are these: LAD for 1 hour, and 2 hours reperfusion.
The subject of data set [2] is isolated rabbit hearts. The data set can be described thus: Isolated ischemic rabbit hearts. In kind it is in vivo.
Data set [3] relates to heart (cardioprotection). The data set can be described thus: Dose-response study of cardioprotective effect. Format: in vivo.
Data set [4] deals with dog hearts. As to the kind of experiment: Inotropic or chronotropic effect on dog hearts. Format: in vivo. An excerpt:
As described above, although the mechanism by which CCr preserves the heart during ischemia and restores cardiac function during reperfusion is not fully understood, it is likely to be related to preservation of ATP. […] Since the breakdown of ATP is the immediate source of energy for contraction, and that contractile performance decreases precipitously and ceases when only 20% of ATP is depleted, the reported CCr preservation of over 85% of ATP (loss of only 15%) in ischemic myocardium is likely the major contributor to the observed restoration of post-ischemic myocardial contractility (see Allam M E, et al., Surg. Forum XLI:246-249, 1990, which is incorporated by reference in its entirety).

Data set [5] has as its system canine heart, regional warm ischemia (LAD). The conditions noted are these: cited from earlier work.
The subject of data set [6] is rat heart, global warm ischemia. The following applies: ischemia time 7, 9, 10 min; cited from earlier work.
The test system of data set [7] is canine heart, hypothermic cardioplegic arrest. The following applies: cited from earlier work; for results (restoration of cardiac function): canine.
Data set [8] deals with rat hearts, normothermic cardioplegic arrest. The conditions noted are these: ischemia time 40 min; cited from earlier work.
Data set [9] relates to isolated rabbit hearts. The conditions noted are these: cited from earlier work.
Data set [10] deals with ischemic isolated rat hearts. The following applies: cited from earlier work.
The subject of data set [11] is chopped whole brain. The conditions noted are these: 0.5% in-vitro for 90 minutes; cited from earlier work.
Where [12] appears, read: intact canine model, coronary artery occlusion followed by reperfusion.

Each structure is given as a SMILES string. Where two headings read alike, the source gives them in different places.

On to `NC1=NCCN1CC(=O)O` [CCr, 1-carboxymethyl-2-iminoimidazolidine], for which, in data set [1], the “cell damage compared to control hearts” value was “marked reduction in cell damage”. Further, the tissue damage result in data set [2] (600 mg/kg intravenous for 2 hours prior to removing and perfusing hearts in-vitro for two hours) is “did not induce tissue damage”. For the same compound, in data set [2] (600 mg/kg intravenous, versus control hearts), the “histology after 2 hours reperfusion (contraction bands, eosinophilic changes)” value is “only occasional small foci of contraction bands and no significant eosinophilic changes”. Besides, in data set [2] (hearts perfused with drug, without preinjection), the “protection (Nourin-1, ATP and CrP levels)” value is on record as “no protection was observed”. Further, the cardioprotective effect entry is “No effect” in data set [3] (150 mg/kg), “strong cardioprotective effect” in data set [3] (300 mg/kg) and “strong cardioprotective effect” in [3] (600 mg/kg). For the same compound, in data set [4], the “inotropic or chronotropic effect” value is “no inotropic or chronotropic effect”. In [5] (setting [12]), the “ATP maintained, of normal non-ischemic levels” value is given as 85%. Also, the “CrP maintained, of normal non-ischemic levels” value in data set [5] (setting [12]) is given as 97%. Also, in data set [5] (setting [12]), the “loss of ATP” value is listed as 15%. Moreover, in data set [5] (setting [12]), the “loss of CrP” value is 3%. The “results (restoration of cardiac function)” value in [5] (ischemia time 1 hr, canine, drug prior to ischemia) was “Restoration”; in data set [6] it was “Restoration”; in data set [7] (ischemia time 1 hr), “Restoration”; in data set [7] (ischemia time 3 hrs), “Restoration”; in [8], “Restoration”. In [5] (ischemic myocardium), the “preservation of ATP” value is reported as “over 85%”. Besides, the defibrillation entry in data set [7] (bypass surgery model, untreated canines required external defibrillation) is reported as “defibrillated spontaneously”. The “levels of ATP and CrP” value in data set [9] (isolated ischemic rabbit hearts) is on record as “maintained high levels”. Also, in data set [9] (treated hearts versus controls), the Nourin-1 released result is “significant reduction”. In data set [10] (fed rats versus control rats), the defibrillation during reperfusion result was “spontaneously defibrillated sooner”. Moreover, the “reduction of myocardial ATP, exhaustion of high-energy phosphates, onset of rigor tension during cardiac ischemia” value in [10] (long-term feeding (up to 3 weeks) with 1%, rats and chickens) is on record as “significantly delayed”. Further, in data set [10] (prior feeding to rats, ischemic isolated hearts), the “ATP depletion and onset of rigor” value was “delayed ATP depletion and the onset of rigor”. Also, the “number of hearts recovering mechanical function upon reperfusion” value in data set [10] (treated rats compared to controls) is on record as “significantly higher”. The “protection of brain tissues from ischemic injury” value in data set [11] is “protected”.
Turning to `CN(CC(=O)O)C(=N)N` [Cr, creatine, reference compound], in data set [9] (isolated ischemic rabbit hearts, control treatment), the “ATP and CrP lost” value is “more than 95%”.

Source of the values: patent US7964736B2, “Phosphagen synthesis” (Nour Heart, Inc., priority 2004, dated 2011).
